The structures appear in SMILES notation.

T1 sequence (Q8IDM6 whole entry): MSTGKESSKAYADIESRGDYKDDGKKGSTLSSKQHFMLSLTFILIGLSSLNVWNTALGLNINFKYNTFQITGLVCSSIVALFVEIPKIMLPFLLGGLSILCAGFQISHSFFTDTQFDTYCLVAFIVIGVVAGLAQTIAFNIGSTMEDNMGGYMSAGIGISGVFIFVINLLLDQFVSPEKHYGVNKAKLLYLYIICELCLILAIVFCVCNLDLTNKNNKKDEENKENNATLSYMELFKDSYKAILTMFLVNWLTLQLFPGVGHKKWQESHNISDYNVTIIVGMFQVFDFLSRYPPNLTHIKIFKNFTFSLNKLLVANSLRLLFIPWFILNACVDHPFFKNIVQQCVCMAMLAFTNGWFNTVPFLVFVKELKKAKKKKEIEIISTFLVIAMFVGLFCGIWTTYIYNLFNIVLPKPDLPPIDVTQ

This assay addresses T1, PfENT1 (Plasmodium falciparum, UniProt Q8IDM6).
T1 construct: expressed in transfected cells; host or cells: fui1Δ yeast (Saccharomyces cerevisiae), co-expressing GFP
In kind it is cell-based. Conditions: primary HTS, compounds at 10 μM, 125 μM 5-FUrd. The method, then:
A yeast-based high throughput screening (HTS) assay was used to identify compounds that inhibit PfENT1. The compounds described in this application were identified by screening four commercially available, chemical compound libraries obtained from Dr. Donald Landry's laboratory (Department of Medicine, Columbia University). These libraries contain approximately 80,000 unique chemical entities.
In the primary screen the compounds were tested at a concentration of 10 μM. Hits were identified by the growth of fui1Δ yeast expressing PfENT1 and Green Fluorescent Protein (GFP) in the presence of the cytotoxic nucleoside 5-fluorouridine (5-FUrd). 5-FUrd is transported by PfENT1. PfENT1 expressing fui1Δ yeast will only grow in the presence of 125 μM 5-FUrd if a PfENT1 inhibitor blocks the uptake of 5-FUrd into the yeast. Significant yeast growth in the HTS in 384 well plates was determined by two criteria: 1) turbidity as determined by the optical density at 620 nm (OD620) and 2) GFP fluorescence intensity. […] Hits had to be positive by both criteria.
Take `O=C(COc1ccccc1Cl)Nc1ccc(C(=O)N2CCCCC2)cc1` [compound 8, 2-(2-chlorophenoxy)-N-[4-(1-piperidinylcarbonyl)phenyl]acetamide]: the “Avg Normalized % maximal activity” value is 54.23%.
Consider `COc1cccc(C(=O)Nc2cccc(-c3nnc(-c4ccco4)o3)c2)c1` [compound 9, N-{3-[5-(2-furyl)-1,3,4-oxadiazol-2-yl]phenyl}-3-methoxybenzamide], for which the “Avg Normalized % maximal activity” value is 54.12%.
As to `Cc1nc(NC(=O)c2sc3ccccc3c2Cl)sc1C(=O)N(C)C` [compound 10, 2-{[(3-chloro-1-benzothien-2-yl)carbonyl]amino}-N,N,4-trimethyl-1,3-thiazole-5-carboxamide], the “Avg Normalized % maximal activity” value was 45.82%.
On to `O=C(Nc1cccc(-c2nc3ncccc3o2)c1)c1ccco1` [compound 11, N-(3-[1,3]oxazolo[4,5-b]pyridin-2-ylphenyl)-2-furamide], for which the “Avg Normalized % maximal activity” value amounted to 32.85%.
On to `Cc1cc(=O)oc2cc(OCc3nnc(-c4ccccc4)o3)ccc12` [compound 12, 4-methyl-7-[(5-phenyl-1,3,4-oxadiazol-2-yl)methoxy]-2H-chromen-2-one], for which the “Avg Normalized % maximal activity” value worked out at 31.72%.
Consider `Cc1ccnc(NC(=O)c2ccc(NC(=O)c3ccco3)cc2)c1` [compound 14, N-(4-{[(4-methyl-2-pyridinyl)amino]carbonyl}phenyl)-2-furamide], for which the “Avg Normalized % maximal activity” value turned out to be 24.47%.
With `COc1ccc(-c2cnc3ccccc3n2)cc1NC(=O)c1ccncc1` [compound 15] the figure was 24.18%; with `COc1ccc(C(=O)Nc2cccc(-c3nc4ncccc4o3)c2)cc1` [compound 16, 4-methoxy-N-(3-[1,3]oxazolo [4,5-b]pyridin-2-ylphenyl)benzamide], 23.87%; with `CCN(CC)C(=O)COc1ccc2c(c1)oc(=O)c1cc(OC)ccc12` [compound 17, N,N-diethyl-2-[(8-methoxy-6-oxo-6H-benzo [c]chromen-3-yl)oxy]acetamide], 22.15%.
For `O=c1[nH]c(/C=C/c2ccccc2Cl)nc2ccccc12` [compound 18, 2-[2-(2-chlorophenyl)vinyl]-4(3H)-quinazolinone], the “Avg Normalized % maximal activity” value turned out to be 21.82%.
In the case of `O=C(Nc1cccc(-c2cn3ccsc3n2)c1)c1ccccc1F` [compound 20, 2-fluoro-N-(3-imidazo[2,1-b][1,3]thiazol-6-ylphenyl)benzamide], the “Avg Normalized % maximal activity” value was 19.78%.
As to `CC1CCc2sc3ncnc(N4CCN(C(=O)c5ccco5)CC4)c3c2C1` (stereo not shown) [compound 21, 4-[4-(2-furoyl)-1-piperazinyl]-6-methyl-5,6,7,8-tetrahydro[1] benzothieno[2,3-d]pyrimidine], the “Avg Normalized % maximal activity” value stood at 17.70%.
With `Cc1nc(NC(=O)c2oc3ccccc3c2C)sc1C(=O)N(C)C` [compound 22, N,N,4-trimethyl-2-{[(3-methyl-1-benzofuran-2-yl)carbonyl]amino}-1,3-thiazole-5-carboxamide], the “Avg Normalized % maximal activity” value came to 17.36%.
For the molecule `Fc1ccc(C2CC(c3ccco3)n3ncnc3N2)cc1` (stereo not shown) [compound 23, 5-(4-fluorophenyl)-7-(2-furyl)-4,5,6,7-tetrahydro[1,2,4] triazolo[1,5-a]pyrimidine], the “Avg Normalized % maximal activity” value came out at 16.77%.
Regarding `O=C(Nc1nc2c(s1)C(=O)CCC2)c1ccccc1Cl` [compound 24, 2-chloro-N-(7-oxo-4,5,6,7-tetrahydro-1,3-benzothiazol-2-yl)benzamide], the “Avg Normalized % maximal activity” value worked out at 16.16%.
As for `CCOc1ccc(-c2noc(CCCC(=O)N3CCCCC3)n2)cc1OC` [compound 25, 1-{4-[3-(4-ethoxy-3-methoxyphenyl)-1,2,4-oxadiazol-5-yl]butanoyl} piperidine], the “Avg Normalized % maximal activity” value is on record as 15.69%.
`O=C(Nc1ccc(-c2nnc(-c3ccco3)o2)cc1)C1CCCO1` (stereo not shown) [compound 26, N-{4-[5-(2-furyl)-1,3,4-oxadiazol-2-yl]phenyl}tetrahydro-2-furancarboxamide]: the “Avg Normalized % maximal activity” value is recorded as 15.22%.
Take `COc1ccc(-c2nc3ccccc3o2)cc1NC(=O)c1cccnc1` [compound 27, N-[5-(1,3-benzoxazol-2-yl)-2-methoxyphenyl] nicotinamide]: the “Avg Normalized % maximal activity” value turned out to be 14.03%.
Regarding `Cc1ccccc1C(=O)Nc1ccc2c(C)cc(=O)oc2c1` [compound 28], the “Avg Normalized % maximal activity” value is on record as 13.98%.
With `COc1ccc(-c2nnc(OC)c3ccccc23)cc1` [compound 29, 1-methoxy-4-(4-methoxyphenyl) phthalazine], the “Avg Normalized % maximal activity” value came out at 13.58%.
Regarding `O=C(Nc1ccc(-c2nnc(-c3ccccc3)o2)cc1)c1ccco1` [compound 30, N-[4-(5-phenyl-1,3,4-oxadiazol-2-yl)phenyl]-2-furamide], the “Avg Normalized % maximal activity” value is listed as 13.43%.
Turning to `CCOc1ccccc1NC(=O)c1cccc(NC(=O)c2ccco2)c1` [compound 31, N-(3-{[(2-ethoxyphenyl)amino]carbonyl}phenyl)-2-furamide], the “Avg Normalized % maximal activity” value was 13.00%.
For `COc1ccc(Cl)cc1Nc1nnc(-c2cnccn2)s1` [compound 32, N-(5-chloro-2-methoxyphenyl)-5-(2-pyrazinyl)-1,3,4-thiadiazol-2-amine], the “Avg Normalized % maximal activity” value stood at 12.03%.
`COC(=O)c1ccccc1NC(=O)c1cccc(NC(=O)c2ccco2)c1C` [compound 33, methyl 2-{[3-(2-furoylamino)-2-methylbenzoyl]amino}benzoate]: the “Avg Normalized % maximal activity” value was 11.98%.
Take `Cc1c(/C=C/c2nc3ccccc3c(=O)[nH]2)c2ccccc2n1C` [compound 34, 2-[2-(1,2-dimethyl-1H-indol-3-yl)vinyl]-4(3H)-quinazolinone]: the “Avg Normalized % maximal activity” value is listed as 11.27%.
For the molecule `COc1cccc(C(=O)Nc2ccc(-c3nnc(-c4ccco4)o3)cc2)c1` [compound 35, N-{4-[5-(2-furyl)-1,3,4-oxadiazol-2-yl]phenyl}-3-methoxybenzamide], the “Avg Normalized % maximal activity” value was determined as 11.40%.
With `CCc1cccc(C)c1NS(=O)(=O)c1cccs1` [compound 36, N-(2-ethyl-6-methylphenyl)-2-thiophenesulfonamide], the “Avg Normalized % maximal activity” value worked out at 11.14%.
Take `COc1ccc(C(=O)Nc2ccc(-c3nc4ncccc4o3)cc2C)cc1OC` [compound 37, 3,4-dimethoxy-N-(2-methyl-4-[1,3]oxazolo [4,5-b]pyridin-2-ylphenyl)benzamide]: the “Avg Normalized % maximal activity” value came to 10.61%.
For the molecule `C[C@@H]1C[C@@H](O[C@H]2[C@H](O[C@H]3CC[C@@]4(C)C(CC[C@]5(C)[C@@H]4CC=C4C6CC(C)(C)CC[C@]6(C(=O)O[C@@H]6O[C@H](CO[C@@H]7O[C@H](CO)[C@@H](O[C@@H]8O[C@@H](C)[C@H](O)[C@@H](O)[C@H]8O)[C@H](O)[C@H]7O)[C@@H](O)[C@H](O)[C@H]6O)CC[C@]45C)[C@]3(C)CO)OC[C@H](O)[C@@H]2O)[C@H](O)[C@H](O)[C@H]1O` (stereo partly shown) [compound 38], the “Avg Normalized % maximal activity” value was 10.61%.
Under `Cc1ccc2oc(-c3ccc(NC(=O)C4CCCO4)cc3)nc2c1` (stereo not shown) [compound 39, N-[4-(5-methyl-1,3-benzoxazol-2-yl)phenyl]tetrahydro-2-furancarboxamide] stands 10.52%; under `CCOC(=O)c1cc(NC(=O)c2ccccc2F)ccc1N1CCOCC1` [compound 40, ethyl 5-[(2-fluorobenzoyl)amino]-2-(4-morpholinyl)benzoate], 10.29%.
For `Cc1cc(-c2nc3ncccc3o2)ccc1NC(=O)c1ccco1` [compound 41, N-(2-methyl-4-[1,3]oxazolo[4,5-b]pyridin-2-ylphenyl)-2-furamide], the “Avg Normalized % maximal activity” value stood at 10.28%.
As for `O=C(Nc1ccc(-c2nnc(-c3ccccc3)o2)cc1)C1CCCO1` (stereo not shown) [compound 42, N-[4-(5-phenyl-1,3,4-oxadiazol-2-yl)phenyl]tetrahydro-2-furancarboxamide], the “Avg Normalized % maximal activity” value turned out to be 10.16%.
Take `O=C(NC(=O)c1ccccc1)Nc1cc(N2CCOCC2)ncn1` [compound 43, N-({[6-(4-morpholinyl)-4-pyrimidinyl]amino}carbonyl) benzamide]: the “Avg Normalized % maximal activity” value is recorded as 9.52%.
Under `Cc1cccc(C(=O)Nc2ccc(-c3nnc(-c4ccco4)o3)cc2)c1` [compound 44, N-{4-[5-(2-furyl)-1,3,4-oxadiazol-2-yl]phenyl}-3-methylbenzamide] stands 9.07%; under `O=C(CSc1nnc(-c2ccc(Cl)cc2Cl)o1)N1CCCCC1` [compound 45, 1-({[5-(2,4-dichlorophenyl)-1,3,4-oxadiazol-2-yl]thio}acetyl)piperidine], 8.97%; under `Cc1nnc(SCc2csc(-c3ccc4c(c3)OCO4)n2)s1` [compound 46, 2-({[2-(1,3-benzodioxol-5-yl)-1,3-thiazol-4-yl]methyl}thio)-5-methyl-1,3,4-thiadiazole], 8.94%.
For `CCOCc1nnc(NC(=O)c2ccc(OC)cc2)s1` [compound 47], the “Avg Normalized % maximal activity” value came out at 8.66%.
With `CCc1ccc(C(C)NC(=O)c2nc[nH]n2)cc1` (stereo not shown) [compound 48, N-[1-(4-ethylphenyl)ethyl]-1H-1,2,4-triazole-3-carboxamide], the “Avg Normalized % maximal activity” value worked out at 8.44%.
As to `O=C(Nc1ccc(-c2nc3ccccc3o2)cc1)C1CCCO1` (stereo not shown) [compound 49, N-[4-(1,3-benzoxazol-2-yl)phenyl]tetrahydro-2-furancarboxamide], the “Avg Normalized % maximal activity” value is reported as 8.36%.

The values above are taken from patent US9695193B2, “Inhibitors of Plasmodium falciparum equilibrative nucleoside transporter type I as anti-parasitic compounds” (The Trustees of Columbia University in the City of New York, priority 2013, dated 2017).
